Article PMC10983001, “Development of Cytotoxic GW7604-Zeise’s Salt Conjugates as Multitarget Compounds with Selectivity for Estrogen Receptor- Positive Tumor Cells” (Journal of Medicinal Chemistry, 2024)

What was measured:
[1] = molecular target: T1, ERβ ligand-binding domain (Homo sapiens, UniProt Q92731); test: TR-FRET ligand binding assay, isolated LBD of ERβ
T1 construct: purchased Invitrogen
Method: A modified LanthaScreen TR-FRET alpha/beta assay was performed, according to the manufacturer’s protocol (Invitrogen, Carlsbad, […]), to determine the binding affinity to the isolated LBD. […] Measurements were carried out on a multimode plate reader, Tecan Spark (Tecan, Männedorf, Switzerland). Calculations and visualization were performed with GraphPad Prism 8.0 (GraphPad Software, San Diego, CA, USA).

[2] = tested on: MCF-7 cells; test: Hormonal (agonistic) activity: growth stimulation; assay type: cell-based, human; conditions: MCF-7, low concentrations (<100 nM), data not shown
From the text: However, both agonistic properties and SERD effects can be excluded.

[3] = tested on: 5′-guanosine monophosphate (5′-GMP); test: Reaction with 5′-GMP (ESI-HR-MS); assay type: binding; conditions: 100 μM, MeOH/water 80/20, 5 min
Method: Thereto, GW7604-Pent-PtCl3 was incubated in a 1:1 ratio with 5′-GMP in a MeOH/water mixture [80/20, (v/v)], and the reaction products were identified by ESI-HR-MS after 5 min and 24 h.
GW7604-Pent-PtCl3 dissolved in MeOH was combined with an aqueous solution of 5′-GMP (disodium salt) to get an [80/20 (v/v)] solution with a complex concentration of 1 mM and a complex/5′-GMP proportion of 1/1.1. The mixture was diluted %1/10 (v/v)] with MeOH/water [80/20 (v/v)], reaching a final complex concentration of 100 μM, and ESI-HR-MS spectra were recorded after 5 min and 24 h. The obtained spectra were analyzed with MestreNova v14.

[4] = tested on: nuclei of SKBr3 cells; test: Nuclear uptake (platinum by HR-CS-AAS), SKBr3; assay type: cell-based, human; conditions: SKBr3, 20 μM, 24 h
Method: Fluorescence in the nuclei is not detectable. Therefore, the nuclei were analyzed for their platinum content using HR-CS-AAS.[25]
After thawing of the cell/nuclei pellets, they were resuspended in ultrapure water (Siemens LaboStar, Günzburg, Germany; 300 μL) and lyzed with a sonotrode (Bandelin Sonoplus, Berlin, Germany; parameters 20 s, 9 cycles, 80% power). Graphite furnace (GF) AAS was used to quantify the lysates concerning their content of platinum (λ = 265.9450 nm). For this purpose, a contrAA 700 High-Resolution-Continous Source AAS (Analytik Jena, Jena, Germany) was employed, while atomization took place by electrothermal heating of graphite tubes with an inserted platform (Analytik Jena, Jena, Germany). […] The spectrometer was monitored with the ASpect CS software, version 2.3.1.0 (Analytik Jena, Jena, Germany). For all runs, the mean integrated absorbance was determined after three injections of each standard or sample. […] Each cell/nuclei lysate was quantified concerning its protein content following the method of Bradford[71] in order to express the uptake as the amount of compound (pmol) in the lysate relative to its protein mass (mg). […] All standards and lysates were measured in duplicate. After incubating for 5 min at rt, the absorbance (λ = 595 nm) was read on a microplate reader (Tecan Safire 2, Männedorf, Switzerland). […]

[5] = tested on: ERα in MCF-7 cells; test: Western blot analysis of ER downregulation; assay type: cell-based, human; conditions: MCF-7, 20 μM, 24 h
Method: The exponentially growing cells were seeded at a density of 2.5 × 10^6 (MCF-7) and 3.0 × 10^6 (SKBr3) cells into 75 cm^2 flasks. The cells were incubated for 24 h in a humidified atmosphere (5% CO2/95% air) at 37 °C. For downregulation experiments, a stock solution of GW7604-Pent-PtCl3 in DMF was freshly prepared and diluted with DMEM containing 10% FCS to the desired concentration [final DMF concentration of 0.1% (v/v), final complex concentration of 20 μM]. The medium in the flasks was replaced with fresh cell culture medium containing the compound, and the flasks were incubated in a humidified atmosphere at 37 °C for 24 h. Afterward, cells were harvested (cell scratcher), and samples were lysed using a modified radio immunoprecipitation assay buffer [50 mM of TRIS (pH = 8.0), 150 mM NaCl, 0.5% NP-40, 50 mM NaF, 1 mM […], 1 mM phenylmethylsulfonyl fluoride, and protease inhibitors (EDTA-free; Roche, Basel, Switzerland)]. Total protein concentration was determined by employing the Bradford assay as described above, and samples were analyzed on the JESS ProteinSimple (Bio-Techne, Minneapolis, MN, USA) according to the manufacturer’s protocol. The following antibodies were used: GAPDH (no. 2118S, cell signaling), ERα (no. 8644S, cell signaling), and COX-2 (no. 12282, cell signaling). All primary antibodies were diluted with antibody diluents provided by ProteinSimple.

T1 sequence (Q92731 264-498 limits assumed): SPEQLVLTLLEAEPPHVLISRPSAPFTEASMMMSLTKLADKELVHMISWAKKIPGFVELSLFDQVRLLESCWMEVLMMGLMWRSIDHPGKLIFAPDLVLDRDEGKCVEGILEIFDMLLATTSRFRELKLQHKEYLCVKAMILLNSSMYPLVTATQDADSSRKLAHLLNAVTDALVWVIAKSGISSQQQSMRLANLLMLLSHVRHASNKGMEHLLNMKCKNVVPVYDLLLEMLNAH

CCC(=C(c1ccc(O)cc1)c1ccc(C=CC(=O)OCCC[CH]2[CH2][Pt-]2([Cl])([Cl])[Cl])cc1)c1ccccc1.[K+] (mixture of isomers) [GW7604-Pent-PtCl3, Potassium trichlorido[η^2-(pent-4-en-1-yl (E)-3-(4-((E/Z)-1-(4-hydroxyphenyl)-2-phenylbut-1-en-1-yl)phenyl)acrylate)]platinate(II)]
RBA (ERβ) ([1]; RBA(E2) = 100%): 6.02% | IC50 ([1]; read-out: IC50 (ERβ), displacement from the LBS): 3.99 nM | agonistic effect: stimulation of growth [2]: neither stimulated the growth | adduct formation with 5′-GMP [3]: 5′-GMP-platinum adducts were present | platinum content in the nuclei [4]: 96 pmol/mg | ER downregulation (SERD effect) [5]: nor downregulated the ER content
